Source: BigSolDB 2.1

O=C(Nc1ccncc1)c1cc(C(=O)Nc2ccncc2)cc(C(=O)Nc2ccncc2)c1
solubility (mole fraction)
Settings | 283.15 K | 288.15 K | 293.15 K | 298.15 K | 303.15 K | 313.15 K | 323.15 K
in 2-butanone | 0.00034 | – | 0.000455 | – | 0.000519 | 0.000577 | 0.000675
in acetone | 6.66e-06 | – | 1.54e-05 | – | 1.86e-05 | 2.5e-05 | 3.64e-05
in acetonitrile | 7.35e-05 | – | 9.53e-05 | – | 0.00012 | 0.000146 | 0.000183
in dichloromethane | 3.08e-05 | 4.23e-05 | 5.41e-05 | 6e-05 | 6.77e-05 | – | –
in ethanol | 4.73e-05 | – | 6.07e-05 | – | 7.59e-05 | 8.97e-05 | 0.000104
in ethyl acetate | 0.000114 | – | 0.000137 | – | 0.000153 | 0.000178 | 0.000196
in isopropanol | 0.000265 | – | 0.000302 | – | 0.000355 | 0.000405 | 0.000431
in methanol | 5.21e-05 | – | 6.76e-05 | – | 9.65e-05 | 0.00013 | 0.000163
in n-butanol | 0.000156 | – | 0.0002 | – | 0.000235 | 0.000297 | 0.000371
in n-hexane | 1.15e-05 | – | 2.45e-05 | – | 4.03e-05 | 5.54e-05 | 6.95e-05
in n-propanol | 0.000217 | – | 0.000244 | – | 0.000255 | 0.000277 | 0.00029
in water | 4.65e-06 | – | 5.71e-06 | – | 7.83e-06 | 8.34e-06 | 1.6e-05
